# Laboratory results taken from patent US11806359B2 (priority 2020, dated 2023).
# Tests used:
# [1] = test system: HTLV-1+ SLB1 lymphoma T-cell-line; experiment: Cytotoxicity/apoptosis in HTLV-1+ SLB1 cells, Annexin V-FITC/PI staining; type: cell-based; details: 72 hrs
# Protocol: SLB1 T-cells were treated with increasing concentrations (10, 50, and 100 μg/ml) of oleandrin or a N. oleander extract for 72 hrs as described herein. As a negative control, the cells were also treated with increasing amounts (1.5, 7.5, and 15 μg) of the vehicle solution which corresponded to the volumes used in the drug-treated cultures. Cyclophosphamide (50 μM; Sigma-Aldrich)-treated cells were included as a positive control for apoptosis. Then, the samples were washed and stained with Annexin V-FITC and propidium iodide (PI) and analyzed by confocal fluorescence-microscopy. The relative percentages of Annexin V-FITC and/or PI-positive cells were quantified by fluorescence-microscopy and counting triplicate visual fields using a 20× objective lens.
# To assess the relative cytotoxicity of the oleandrin compound, extract of N. oleander, or the Vehicle control in treated cell cultures, 2×10^4 HTLV-1+ SLB1 lymphoma T-cells or activated/cultured huPBMCs were plated in 300 μl of complete medium, supplemented with antibiotics, and maintained at 37.0 under 10% CO2 in a humidified incubator. The cultures were treated with either increasing concentrations (10, 50, and 100 μg/ml) of oleandrin or N. oleander extract, or the Vehicle control ([…]) and incubated for 72 hrs. […] The total numbers of cells per field were quantified by microscopy using a DIC phase-contrast filter.
# HIV-1 = details: Singh et al. 2013; cited from earlier work
# SARS-CoV-2 = experiment: Direct antiviral activity against SARS-CoV-2, percent infected cells by immunostaining (Example 29); type: cell-based
# Protocol: The results are depicted in FIGS. 24A and 24B. […] Potential methods of action include inhibition of viral replication, assembly, and/or egress.
# Growth media was removed from confluent monolayers of approximately 10^6 Vero CCL81 cells in 6-well plates. Oleandrin was serially diluted in culture media and added to […]. The growth media was replaced with 200 μl of maintenance media containing either 1.0 μg/ml, 0.5 μg/ml, 100 ng/ml, 50 ng/ml, 10 ng/ml, or 5 ng/ml oleandrin, or matched DMSO-only controls. The plates were incubated at 37° C. for about 30 minutes prior to addition of virus.
# SARS-CoV-2 virus was added to Oleandrin treated cells and untreated cells at a MOI (multiplicity of infection) of 0.4 (entry assay) or 0.02 (replication assay). Oleandrin remained in the wells during a 1 hr incubation at 37° C.
# After 1 hr absorption, inoculation media was removed and washed 1 time with PBS (standard phosphate buffer saline).
# Media alone (no oleandrin) was added back to oleandrin-treated wells designated as “Pretreatment” on data slides. Media with indicated concentrations of oleandrin was added back to wells designated as “Duration” on data slides.
# Plates were fixed at either 24 (entry assay) or 48 (replication assay) hours post-infection and immunostained with virus-specific antibody and fluorescently labeled secondary antibody.
# Cells were imaged using an Operetta and data was analyzed using custom algorithms in Harmonia software to determine the percent of infected cells in each well.
# huPBMCs = experiment: Cytotoxicity/apoptosis in primary huPBMCs, Annexin V-FITC/PI staining; type: cell-based, human; details: compared to the vehicle control, 72 hrs
# Protocol: Primary buffy-coat huPBMCs were isolated and stimulated with phytohemagglutinin (PHA) and cultured in the presence of recombinant human interleukin-2 (hIL-2). The cells were then treated for 72 hrs with increasing concentrations of oleandrin or a N. oleander extract, or with increasing volumes of the Vehicle. The samples were subsequently stained with Annexin V-FITC and PI and the relative percentages of apoptotic (i.e., Annexin V-FITC and/or PI-positive) cells per field were quantified by confocal fluorescence-microscopy and counting in-triplicate.
# Cytotoxic effects of the Vehicle control, N. oleander extract, and the oleandrin compound were assessed by treating primary huPBMCs for 72 hrs, and then the cultures were stained with Annexin V-FITC and PI. The relative percentages of apoptotic (i.e., Annexin V-FITC and/or PI-positive) cells were quantified by fluorescence-microscopy and counting triplicate visual fields using a 20× objective lens. The total numbers of cells were determined using DIC phase-contrast microscopy. Cyclophosphamide (50 μM)-treated cells were included as a positive control for apoptosis. NA indicates the number of cells in this sample was too low for accurate assessment due to higher toxicity. […]
# Vero-E6 cells = details: African green monkey
# HTLV-1 = HTLV-1 replication and p19Gag particle release from SLB1 cells, Anti-HTLV-1 p19Gag ELISA; type: cell-based, human T-cell leukemia virus type-1; details: SLB1 cells, 10, 50, 100 μg/ml, 72 hrs
# [2] = In vitro cellular assay for release of lactate dehydrogenase; type: cell-based
# Protocol: Proof of the safety of the oleandrin-containing composition was further provided by in vitro cellular assay for determining the release of lactate dehydrogenase after exposure of said cells to solutions containing different concentrations of oleandrin. It was determined that up to concentrations of 1 microg/mL, there was no additional toxicity over control vehicle.
structure (smiles),measurement,setting,value
CO[C@H]1C[C@H](O[C@H]2CC[C@@]3(C)[C@H](CC[C@@H]4[C@@H]3CC[C@]3(C)[C@@H](C5=CC(=O)OC5)[C@@H](OC(C)=O)C[C@]43O)C2)O[C@@H](C)[C@@H]1O [oleandrin],cytotoxicity/apoptosis at the lowest concentration,[1]; 10 μg/ml,did not induce significant cytotoxicity/apoptosis
same,cytotoxicity compared with the Vehicle control,[1]; treated HTLV-1+ SLB1 cells,not significantly higher than the Vehicle control
same,HIV-1 viral infectivity in vitro,HIV-1,inhibit viral infectivity in vitro
same,antiviral activity,"SARS-CoV-2; 48-h, oleandrin only during the absorption phase (Pre-treatment data)",minimal antiviral activity
same,viral infection,"SARS-CoV-2; 48-h, treated for the duration of the assay",significantly limited viral infection
same,virus entry and/or viral replication,"SARS-CoV-2; 24 h, treated for the duration of the assay",significantly limited virus entry and/or viral replication
same,cytotoxicity in huPBMCs,huPBMCs,moderate cytotoxicity
same,concentration at which cellular toxicity appeared,Vero-E6 cells,≥ 1000 ng/mL
same,Vero cells remaining viable,Vero-E6 cells; 24 h,about 80%
same,HTLV-1 replication or release of p19Gag-containing virus particles,HTLV-1,does not significantly inhibit
same,concentration up to which no additional toxicity over control vehicle,[2],≤ 1000 ng/mL
